From patent US12527782B2, “Use of hexokinase 2/mitochondria-detaching compounds for treating hexokinase-2 (HK2)-expressing cancers” (Vidac Pharma Ltd., priority 2016, dated 2026) come the findings set out here.

Test [1] deals with HeLa cells. The test is described as follows: Apoptosis induction in HeLa cells (FACS, propidium iodide and annexin V). Format: cell-based. The settings on record: Homo sapiens, 48 hr incubation. The procedure: FIG. 12. Apoptosis induction in HeLa cells following 48 hr incubation with Compound (1) IC50=70 nM. Apoptosis was evaluated by FACS, labeling the cells with propidium iodide and annexin V.
FIG. 13. Apoptosis induction in HeLa cells following 48 hr incubation with Compound (1). IC50=70 nM. Apoptosis was evaluated by FACS, labeling the cells with propidium iodide and annexin V.

The test system of test [2] is HeLa cells. The test is described as follows: Lactate levels in culture media of HeLa cells (BioVision kit). The format is cell-based. The settings on record: 20 μM. The procedure: FIG. 14. Lactate levels in the culture media of HeLa cells incubated with 20 μM Compound (1). Lactate levels were assayed with a BioVision kit (Catalog #K607-100).

A word on the IC50: it is the concentration that gives 50% inhibition. A higher IC50 goes with lower potency. With `O=C(N1CCN(c2ccccc2)CC1)N1c2ccccc2Oc2ccccc21` [Compound (1)], 70 nM corresponded to half-maximal inhibition in the test on HeLa cells [1] (IC50). In the test on HeLa cells [2], the “lactate levels in the culture media” value is on record as “lowered lactate levels”.
